Legend:
CCKB receptor = molecular target: T1, CCKB receptor (Mus musculus, UniProt P56481); experiment: CCKB receptor radioligand binding assay in mouse cortical membranes; conditions: [125I]-CCK8(S) 200 pM, 150 min at 21±3°, read-out: CCKB pKi (converted)
T1 construct: The whole brains from male mice (CD1 22-25 g; Charles River) were removed; from tissue; host or cells: cerebral cortex membranes of male CD1 mice
T1 sequence (P56481 1-453): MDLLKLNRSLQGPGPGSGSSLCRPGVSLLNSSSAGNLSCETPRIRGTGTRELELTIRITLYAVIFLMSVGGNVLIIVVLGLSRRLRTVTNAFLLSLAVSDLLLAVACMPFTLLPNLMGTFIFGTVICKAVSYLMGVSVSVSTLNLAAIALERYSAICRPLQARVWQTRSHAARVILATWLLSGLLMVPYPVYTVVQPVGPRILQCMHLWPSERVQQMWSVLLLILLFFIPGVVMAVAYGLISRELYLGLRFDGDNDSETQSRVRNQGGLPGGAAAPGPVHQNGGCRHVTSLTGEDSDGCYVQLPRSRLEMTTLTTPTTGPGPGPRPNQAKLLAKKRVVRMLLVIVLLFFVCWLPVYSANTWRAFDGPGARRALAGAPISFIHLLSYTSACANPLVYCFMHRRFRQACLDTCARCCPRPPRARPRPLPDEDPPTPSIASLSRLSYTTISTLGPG
How it was run: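 Bound radioactivity was gamma-counted after rapid GF/B filtration and cold 50 mM Tris-HCl (pH 7.4) washes. The tissue was cerebral cortex from male CD1 mice, prepared as twice-centrifuged membranes in pH 7.2 HEPES/NaCl/KCl/MgCl2/EDTA buffer with bacitracin at 20 mg/ml original wet weight.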

gastrin receptor = molecular target: T2, gastrin receptor (Rattus norvegicus, UniProt P30553); experiment: gastrin antagonist activity in immature rat stomach assay (pentagastrin dose-response, acid secretion); conditions: isolated immature rat stomach, cumulative pentagastrin dose-response curves, read-out: Gastrin pKb (converted)
T2 construct: The stomach was excised and flushed with ca. 1 ml of unbuffered physiological saline solution; from tissue; host or cells: isolated whole stomach of immature rats (ca. 21 days old)
T2 sequence (P30553 1-452): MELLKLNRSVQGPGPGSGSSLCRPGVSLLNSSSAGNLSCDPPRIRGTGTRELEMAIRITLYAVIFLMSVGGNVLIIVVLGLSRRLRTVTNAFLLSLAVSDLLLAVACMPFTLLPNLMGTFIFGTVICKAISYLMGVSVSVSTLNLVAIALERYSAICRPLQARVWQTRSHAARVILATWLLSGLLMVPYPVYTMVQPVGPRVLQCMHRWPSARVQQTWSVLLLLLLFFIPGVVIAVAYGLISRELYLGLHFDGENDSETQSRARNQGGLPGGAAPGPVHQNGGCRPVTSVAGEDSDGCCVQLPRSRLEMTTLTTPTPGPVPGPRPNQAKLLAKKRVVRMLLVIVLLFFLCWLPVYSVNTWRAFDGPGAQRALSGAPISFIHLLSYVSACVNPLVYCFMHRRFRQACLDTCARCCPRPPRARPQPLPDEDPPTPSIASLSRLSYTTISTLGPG
How it was run: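 Gastrin antagonism was measured as the effect on cumulative pentagastrin dose-response curves of acid output, recorded by pH electrode in the perfusate of an excised immature rat stomach (ca. 21 days old). Test compound was placed in the serosal bath (37°, 3×10^−8 M 5-methylfurmethide) 60 min before pentagastrin.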

Ki (CCKB receptor) | Kb (gastrin receptor) | Compound
7.24 nM | 5.5 nM | CCC(CC)c1nc(C(=O)Nc2ccc(C)c(C(=O)O)c2)c(CCC23CC4CC(CC(C4)C2)C3)[nH]1 [Example 113, 5{-[5-(2-Adamantan-1-yl-ethyl)-2-(1-ethyl-propyl)-1H-imidazole-4-carbonyl]-amino}-2-methyl-benzoic Acid]
1020 nM | 3020 nM | O=C(O)c1cccc(NC(=O)c2sc(C3CCCCC3)nc2CCC23CC4CC(CC(C4)C2)C3)c1 [Example 122, 3-{[4-(2-Adamantan-1-yl-ethyl)-2-cyclohexyl-thiazole-5-carbonyl]-amino}-benzoic Acid]
63.1 nM | 15.5 nM | CCCCC(CC)c1nc(C(=O)Nc2cccc(C(=O)O)c2)c(CCC23CC4CC(CC(C4)C2)C3)[nH]1 (stereo not shown) [Example 124, 3-{[5-(2-Adamantan-1-yl-ethyl)-2-(1-ethyl-pentyl)-1H-imidazole-4-carbonyl]-amino}-benzoic Acid]
105 nM | 2.29 nM | CCCC(CCC)c1nc(C(=O)Nc2cccc(C(=O)O)c2)c(CCC23CC4CC(CC(C4)C2)C3)[nH]1 [Example 125, 3-{[5-(2-Adamantan-1-yl-ethyl)-2-(1-propyl-butyl)-1H-imidazole-4-carbonyl]-amino}-benzoic Acid]
21.9 nM | 15.8 nM | CCCC(CCC)c1nc(C(=O)Nc2ccc(C)c(C(=O)O)c2)c(CCC23CC4CC(CC(C4)C2)C3)[nH]1 [Example 126, 5-{[5-(2-Adamantan-1-yl-ethyl)-2-(1-propyl-butyl)-1H-imidazole-4-carbonyl]-amino}-2-methyl-benzoic Acid]
219 nM | 380 nM | O=C(O)c1cc(NC(=O)c2nc(C3CCCCC3)[nH]c2CCC23CC4CC(CC(C4)C2)C3)cc(C(=O)O)c1 [Example 129, 5-{[5-(2-Adamantan-1-yl-ethyl)-2-cyclohexyl-1H-imidazole-4-carbonyl]-amino}-isophthalic Acid]
407 nM | 339 nM | Nc1ccc(C(=O)O)cc1NC(=O)c1nc(C2CCCCC2)[nH]c1CCC12CC3CC(CC(C3)C1)C2 [Example 131, 3-{[5-(2-Adamantan-1-yl-ethyl)-2-cyclohexyl-1H-imidazole-4-carbonyl]-amino}-4-amino-benzoic Acid]
141 nM | 12 nM | CC1(CCc2[nH]c(C3CCCCC3)nc2C(=O)Nc2cccc(C(=O)O)c2)CCCCC1 [Example 133, 3-({2-Cyclohexyl-5-[2-(1-methyl-cyclohexyl)-ethyl]-1H-imidazole-4-carbonyl}-amino)-benzoic Acid]
4170 nM | 148 nM | O=C(O)c1cccc(NC(=O)c2nc([C@@H]3CCCN3)[nH]c2CCC23CC4CC(CC(C4)C2)C3)c1 [Example 136, (S)-3-{[5-(2-Adamantan-1-yl-ethyl)-2-pyrrolidin-2-yl-1H-imidazole-4-carbonyl]-amino}-benzoic Acid]
324 nM | 5.13 nM | CN1CCC[C@H]1c1nc(C(=O)Nc2cccc(C(=O)O)c2)c(CCC23CC4CC(CC(C4)C2)C3)[nH]1 [Example 137, (S)-3-{[5-(2-Adamantan-1-yl-ethyl)-2-(1-methyl-pyrrolidin-2-yl)-1H-imidazole-4-carbonyl]-amino}-benzoic Acid]
50.1 nM | 25.7 nM | Cc1ccc(NC(=O)c2nc([C@@H]3CCCN3C)[nH]c2CCC23CC4CC(CC(C4)C2)C3)cc1C(=O)O [Example 138, (S)-5-{[5-(2-Adamantan-1-yl-ethyl)-2-(1-methyl-pyrrolidin-2-yl)-1H-imidazole-4-carbonyl]-amino}-2-methyl-benzoic Acid]
191 nM | 60.3 nM | CN1CCC[C@@H]1c1nc(C(=O)Nc2cccc(C(=O)O)c2)c(CCC23CC4CC(CC(C4)C2)C3)[nH]1 [Example 143]
437 nM | 14.1 nM | CC(C)CN1CCC[C@@H]1c1nc(C(=O)Nc2cccc(C(=O)O)c2)c(CCC23CC4CC(CC(C4)C2)C3)[nH]1 [Example 144, (R)-3-{[5-(2-Adamantan-1-yl-ethyl)-2-[1-(2-methyl-propyl)-pyrrolidin-2-yl]-1H-imidazole-4-carbonyl]-amino}-benzoic Acid]
151 nM | 51.3 nM | O=C(O)c1cccc(NC(=O)c2nc(-c3ccc(Cl)cc3Cl)[nH]c2CCC23CC4CC(CC(C4)C2)C3)c1 [Example 146, 3-{[5-(2-Adamantan-1-yl-ethyl)-2-(2,4-dichlorophenyl)-1H-imidazole-4-carbonyl]-amino}-benzoic Acid]
102 nM | 53.7 nM | O=C(O)c1cccc(NC(=O)c2nc(-c3c(Cl)cccc3Cl)[nH]c2CCC23CC4CC(CC(C4)C2)C3)c1 [Example 148, 3-{[5-(2-Adamantan-1-yl-ethyl)-2-(2,6-dichlorophenyl)-1H-imidazole-4-carbonyl]-amino}-benzoic Acid]
145 nM | 646 nM | Cc1ccc(NC(=O)c2nc(-c3cccc(Cl)c3Cl)[nH]c2CCC23CC4CC(CC(C4)C2)C3)cc1C(=O)O [Example 150, 5-{[5-(2-Adamantan-1-yl-ethyl)-2-(2,3-dichlorophenyl)-1H-imidazole-4-carbonyl]-amino}-2-methyl-benzoic Acid]
6.31 nM | 21.9 nM | Cc1ccc(-c2nc(C(=O)Nc3ccc(C)c(C(=O)O)c3)c(CCC34CC5CC(CC(C5)C3)C4)[nH]2)c(C)c1 [Example 151, 5-{[5-(2-Adamantan-1-yl-ethyl)-2-(2,4-dimethyl-phenyl)-1H-imidazole-4-carbonyl]-amino}-2-methyl-benzoic Acid]
10.5 nM | 11.5 nM | Cc1ccc(NC(=O)c2nc(-c3ccc(F)cc3F)[nH]c2CCC23CC4CC(CC(C4)C2)C3)cc1C(=O)O [Example 152, 5-{[5-(2-Adamantan-1-yl-ethyl)-2-(2,4-difluoro-phenyl)-1H-imidazole-4-carbonyl]-amino}-2-methyl-benzoic Acid]
4.9 nM | 57.5 nM | Cc1ccc(NC(=O)c2nc(-c3c(C)cccc3C)[nH]c2CCC23CC4CC(CC(C4)C2)C3)cc1C(=O)O [Example 153, 5-{[5-(2-Adamantan-1-yl-ethyl)-2-(2,6-dimethyl-phenyl)-1H-imidazole-4-carbonyl]-amino}-2-methyl-benzoic Acid]
24.5 nM | 8.71 nM | Cc1cc(C)c(-c2nc(C(=O)Nc3cccc(C(=O)O)c3)c(CCC34CC5CC(CC(C5)C3)C4)[nH]2)c(C)c1 [Example 154, 3-{[5-(2-Adamantan-1-yl-ethyl)-2-(2,4,6-trimethyl-phenyl)-1H-imidazole-4-carbonyl]-amino}-benzoic Acid]
759 nM | 105 nM | CCc1ccccc1-c1nc(C(=O)Nc2cccc(C(=O)O)c2)c(CCC23CC4CC(CC(C4)C2)C3)[nH]1 [Example 158, 3-{[5-(2-Adamantan-1-yl-ethyl)-2-(2-ethyl-phenyl)-1H-imidazole-4-carbonyl]-amino}-benzoic Acid]
12.3 nM | 316 nM | CCc1ccccc1-c1nc(C(=O)Nc2ccc(C)c(C(=O)O)c2)c(CCC23CC4CC(CC(C4)C2)C3)[nH]1 [Example 159, 5-{[5-(2-Adamantan-1-yl-ethyl)-2-(2-ethyl-phenyl)-1H-imidazole-4-carbonyl]-amino}-2-methyl-benzoic Acid]

Compound | Ki (CCKB receptor) | Kb (gastrin receptor)
Cc1ccc(NC(=O)c2nc(C3CCCCC3)[nH]c2CCC23CC4CC(CC(C4)C2)C3)cc1C(=O)O [Example 135, 5-{[5-(2-Adamantan-1-yl-ethyl)-2-cyclohexyl-1H-imidazole-4-carbonyl]-amino}-2-methyl-benzoic Acid] | 6.17 nM | 22.4 nM
